The source of these data is patent US20040009485A1, “Cellular arrays for the identification of altered gene expression” (priority 2002, published 2004).

Assay type in all cases: cell-based, E. coli
The subject of test [1] is luxCDABE gene fusions in lexA+ host. Kind of test: Mitomycin C and nalidixic acid responses in lexA+ host. The following applies: for NA Ratio, 2 hr 10 ug/ml: lexA+ host. Here is the method: In addition, the effect of a lexAind mutation was tested to determine if any of these were part of the SOS regulon. The expectation is that SOS regulon member will be induced by both nalidixic acid and mitomycin C in a manner that is dependent on lexA function (Walker, G. C., (1996) Escherichia coli and Salmonella: Cellular and Molecular Biology ASM Press). […] This is consistent with the observation of upregulation of the b1728 mRNA transcript upon mitomycin C treatment in a LexA dependent fashion (Fernández de Henestrosa et al. (2000). Mol. Microbiol. 35:1560-1572). Likewise, two Gene fusions, those to oraA and yigN were identified is new members of the SOS regulon (Table 16). […] Negative, non-DNA damage responsive gene fusions were also included (Table 16).

Test [2] concerns luxCDABE gene fusions of the Lux-A Collection. In words: Induction of Lux-A Collection gene fusions by MMC (and yebF fusion by nalidixic acid). The following applies: light-producing transformants with inverted insert (20% of them). As to the method: The Lux-A Collection of reporter gene fusions was examined for presence of fusions to the genes in Table 11. […] Each of these was tested for induction by MMC at several doses over a time course of 100 minutes.
As expected, the expression of the known SOS genes was elevated; however the expression of several was elevated less than 2-fold (Table 12) and as such were within a large group of 792 genes the expression of which was elevated by 20% or more. Most of these are likely due to artifacts in the array data rather than to actual biologically relevant responses. To test if strains carrying luxCDABE gene fusions would yield the expected positive result, the three gene fusions that were available in the Lux-A Collection of reporter gene fusions were tested for mitomycin C responses.
In this case, a divergent promoter to the purT gene was present in the chromosomal fragment and strains containing the backward yebF fusion produced light. […] […] The orientation of the inserted segment to yield a fusion of yebF to the luxCDABE operon was confirmed by DNA sequence analysis.

Test [3] deals with Luxarray 0.5 reporter clones. Kind of test: High density Luxarray 0.5 nalidixic acid perturbation (cooled CCD camera). The following applies: 5 μg/ml, 0-8 hr. Here is the method:
The clones of Luxarray 0.5 were used to print arrays as described above at a 4×4 density. That is to say that each single spot as in FIG. 3 was replicated 16× in a 4×4 subarray. […] Arrays were printed in triplicate from fresh overnight cultures onto membranes on plates containing LB media. […] Cultures were replaced at 37° C. to continue growing. Images were collected for each array every two hours from 0-8 hr after relocation using a cooled CCD camera (FluorChem 8000: f0.85 lens, 2 min exposure. AlphaInnotech). Spot intensity was determined using ArrayVision™ (Imaging Research, Toronto, Canada).
In contrast, light production from the strain carrying the lac promoter fusion as well as several strains carrying other promoter fusions was decreased.

In test [4] the test system is SOS regulon gene fusions. Kind of test: Stress response of SOS regulon luxCDABE gene fusions (nalidixic acid). Conditions: for Nalidixic acid response ratio: 5 μg/ml, 110 minutes, LB, treated/untreated. Here is the method: (§1) To test the stress responses, one or two single colonies of each selected strain were used to inoculate 5.0 ml of LB medium containing 150 μg/ml of ampicillin. These cultures were grown overnight at 37° C. then diluted by adding 50 μl or 100 μl of the overnight culture into 10.0 ml of fresh LB medium (without ampicillin) and grown with agitation at 37° C. until the culture was in exponential phase with readings on a Klett-Summerson colorimeter containing the red filter of between 10 and 40. These actively growing cultures were immediately used to initiate a stress response experiment by adding 50 μl of cultures to 50 μl of LB medium containing various concentrations of chemical in the wells a 96 well luminometer plate. This division of the actively growing culture at the time of chemical addition ensured identical populations were present when the stress was imposed. Light production was measured in a Dynex ML3000 luminometer at 37° C. The dimensionless units of light production, relative light units (RLU), are obtained by comparison with the light reading from an internal light-emitting diode. The cycle mode of the ML3000 luminometer, similar to previous descriptions (Van Dyk et al., Appl. Environ. Microbiol. 60:1414-120) was used.
The ability of these promoter-luxCDABE fusions to report activation of the SOS stress response was tested using nalidixic acid, a known, potent chemical inducer. The final concentrations of nalidixic acid were 1, 5, 25, and 125 μg/ml for all but strain DPD2293, which was tested at 80, 40, 20, 10, 5, 2.5, and 1.25 μg/ml.
Specificity of responses was tested by measuring the effect of ethanol on these SOS regulon gene fusions.

The subject of test [5] is heat shock regulon gene fusions. Kind of test: Stress response of heat shock regulon luxCDABE gene fusions (ethanol). Conditions: clpB-luxCDABE fusion (heat shock regulon), DPD2243; 5 μg/ml nalidixic acid, 110 minutes. Here is the method: as §1, with “used. […]” for “used.”

Take `CCn1cc(C(=O)O)c(=O)c2ccc(C)nc21` [Nalidixic acid, nalidixic acid]: the “NA Ratio, 2 hr 10 ug/ml” value was determined as 2.87 in test [1] (1pxA 1pxB rnhB dnaE fusion (lux-a.pk061.c3)); 5.17 in test [1] (b1728 fusion (lux-a.pk033.c5)); 3.25 in test [1] (b1936 fusion (lux-a.pk0019.g1)); 4.03 in test [1] (dinG ybiB fusion (lux-a.pk0024.f5)); 3.22 in test [1] (fusion (lux-a.pk0015.d6)); 0.81 in test [1] (lacZ fusion (65.d4), negative control). Besides, the “NA Ratio, 2 hr 10 ug/ml” value in test [1] (oraA fusion (lux-a.pk058.f5)) is recorded as 11.06; in test [1] (yaaF fusion (lux-a.pk031.e7)) it was 1.53; in test [1] (yciG fusion (lux-a.pk006.b4), negative control) it was 0.32; in test [1] (yigN fusion (lux-a.pk046.f11)), 5.74. For the same molecule, in test [1] (lexA+ host (FIG. 9)), the “induction of b1728 promoter-luxCDABE fusion” value is given as “clearly induced”. For the same molecule, the “induction of bioluminescence of inverted yebF-luxCDABE fusion” value in test [2] was “highly induced”. For the same molecule, in test [3] (five documented DNA damage-responsive reporter constructs), the “reporter expression, high density array” value is “upregulation of expression”. Besides, in test [3] (lac promoter fusion and several other promoter fusions), the “light production, high density array” value is listed as “decreased”. The “Nalidixic acid response ratio” value is reported as 2.2 in test [4] (dinF fusion, DPD2247 (lux-a.pk085.a5)); 2.0 in test [4] (dinG fusion, DPD2248 (lux-a.pk0024.f5)); 5.0 in test [4] (dinP fusion, DPD2249 (lux-a.pk055.a3)); 1.8 in test [4] (recA fusion, DPD2250 (lux-a.pk022.d4)); 2.8 in test [4] (recA fusion, DPD2251 (lux-a.pk085.b5)); 4.6 in test [4] (ruvA fusion, DPD2293 (lux-a.pk058.f2)). The “Nalidixic acid response ratio” value in test [4] (uvrA fusion, DPD2253 (lux-a.pk01.b6)) is 1.4; in test [4] (uvrD fusion, DPD2254 (lux-a.pk052.b6)) it was 1.2. For the same molecule, the “bioluminescence compared with untreated culture” value in test [4] (each of the eight SOS fusion strains, at least three concentrations (1-125 μg/ml; DPD2293 1.25-80 μg/ml)) is recorded as “increased bioluminescence”. Also, the Response Ratio in test [5] is 0.40.
